Laboratory results taken from patent publication US20200392562A1, “[…] REACTION C[…]” (priority 2017, published 2020).
Entries after “also recorded” stand apart in the source; their conditions may differ. Where a name gives a salt, the structure may show the parent alone. Read-outs that look alike come from different tables or passages of the source.

Columns and labels:
[1] = system: Platinum SuperFi DNA polymerase; format: biochemical; conditions: for yield of PCR product: up to 20 μl of Agencourt XP magnetic beads in 50 μl PCR reaction, amine instead of 110 mM KCl
Procedure: PCR yield and tolerance for magnetic beads in PCR master mix with different amines compared to the control master mix (with KCl) was evaluated by amplification of a 1 kb fragment from 42 ng of human genomic DNA template. PCR was performed in 50 μl PCR reactions in the presence of increasing amounts of magnetic beads.
The PCR master mix (1×) concentration of KCl (110 mM) was substituted for solution comprising an amine.
Agencourt XP magnetic beads were used in the experiment. From 5 to 35 μl of magnetic beads were washed 2 times with 80% EtOH and dried (an imitation of a protocol for purifying nucleic acids). Dried magnetic beads were resuspended in 50 μl of PCR reaction (complete with PCR master mix, DNA matrix, and primers). The forward primer was SEQ ID No: 3, and the reverse primer was SEQ ID No: 4.
(§1) Products were detected by electrophoresis in a 1% TAE gels followed by staining with ethidium bromide.

Taq DNA polymerase = Taq DNA polymerase (Thermus aquaticus, UniProt P19821); format: biochemical
Chain of Taq DNA polymerase (P19821 whole entry): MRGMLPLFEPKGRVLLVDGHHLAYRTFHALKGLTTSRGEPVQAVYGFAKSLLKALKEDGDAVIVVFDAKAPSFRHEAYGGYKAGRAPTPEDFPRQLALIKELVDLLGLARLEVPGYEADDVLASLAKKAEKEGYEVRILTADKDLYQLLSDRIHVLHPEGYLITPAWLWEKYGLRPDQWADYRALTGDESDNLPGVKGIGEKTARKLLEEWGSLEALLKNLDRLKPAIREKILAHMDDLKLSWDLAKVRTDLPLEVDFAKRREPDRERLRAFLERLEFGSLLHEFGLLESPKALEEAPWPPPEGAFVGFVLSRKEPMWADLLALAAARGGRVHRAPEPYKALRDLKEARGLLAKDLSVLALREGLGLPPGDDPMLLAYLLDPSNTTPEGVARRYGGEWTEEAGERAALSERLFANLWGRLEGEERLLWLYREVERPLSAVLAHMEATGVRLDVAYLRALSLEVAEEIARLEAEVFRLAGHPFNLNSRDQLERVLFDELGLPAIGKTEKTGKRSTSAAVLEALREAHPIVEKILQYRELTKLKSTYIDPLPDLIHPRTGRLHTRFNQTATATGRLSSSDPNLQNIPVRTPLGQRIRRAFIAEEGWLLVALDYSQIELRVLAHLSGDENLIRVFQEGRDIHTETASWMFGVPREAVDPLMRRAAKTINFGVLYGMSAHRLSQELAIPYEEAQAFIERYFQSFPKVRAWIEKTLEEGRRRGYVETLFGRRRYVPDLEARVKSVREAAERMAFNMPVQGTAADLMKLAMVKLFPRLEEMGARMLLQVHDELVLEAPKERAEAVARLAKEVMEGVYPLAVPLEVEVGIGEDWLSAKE
Excerpt: A forward primer (SEQ ID No: 1) and a reverse primer (SEQ ID No: 2) were used with the PCR program described in Table 3. PCR products were detected by agarose gel electrophoresis followed by ethidium bromide staining

[2] = system: mutant Taq DNA polymerase
[3] = system: Platinum SuperFi DNA polymerase
Procedure: Yield and tolerance for urea in PCR master mix with different amines compared to the control master mix (with KCl) was evaluated by amplification of a 1 kb fragment from 42 ng of human genomic DNA template in 50 μl PCR reactions.
PCR master mix (1×) composition was 0.16 u/μL Platinum SuperFi DNA polymerase in 1× SuperFi buffer. In some experiments, 110 mM of KCl was substituted for solution comprising amines. […]
The PCR program used for the experiment is described in Table 4.
as §1

[4] = PCR buffers containing amine, PCR buffer 1: 0.04%
[5] = sodium citrate 0-0.08%, PCR buffers with 10, 40 or 50 mM amine
[6] = urea 0-230 mM, PCR buffers with 10, 40 or 50 mM amine

Row | SMILES | yield of PCR product [1] | PCR product yield compared to PCR buffer 1 without amines (Taq DNA polymerase) | sodium citrate concentration tolerated (Taq DNA polymerase; [4]) | tolerance to sodium citrate compared with PCR buffer 1 (Taq DNA polymerase; sodium citrate 0-0.08%, PCR buffers containing amine) | PCR product yield compared with PCR buffer 1 (Taq DNA polymerase; [5]) | resistance to urea compared with PCR buffer 1 (Taq DNA polymerase; urea 0-230 mM, PCR buffers containing amine) | PCR product yield compared with PCR buffer 1 (Taq DNA polymerase; [6]) | tolerated amount of magnetic beads in the PCR reaction [1] | PCR product yield in the presence of magnetic beads ([1]; reaction buffer with 70, 80 or 90 mM KCl, part or all of the potassium salt replaced with amine, data not shown) | PCR product yield (SuperFi DNA polymerase) | PCR product yield [2] | PCR yield [3] | greater tolerance to sodium citrate compared to PCR buffer 1 (Taq DNA polymerase; sodium citrate, PCR buffer 1: 0.04%) | greater tolerance to urea compared with PCR buffer 1 (Taq DNA polymerase; urea, PCR buffer 1: 37 mM) | greater tolerance to sodium citrate compared to PCR buffer 1 (Taq DNA polymerase) | greater tolerance to urea compared with PCR buffer 1 (Taq DNA polymerase) | sodium citrate concentration tolerated (Taq DNA polymerase) | PCR product yield compared with PCR buffer 1 (Taq DNA polymerase; hydrochloride) | tolerance to urea compared to PCR buffer with KCl [3]
1 | CN(C)C [trimethylamine hydrochloride] | Increased yield | higher | 0.04% | same tolerance | Higher | same resistance | increased | – | – | – | – | – | – | – | – | – | – | – | –
2 | CNC [dimethylamine hydrochloride] | Increased yield | – | – | – | – | – | – | increased the tolerated amount | increased | increased | increased | much higher | – | – | – | – | – | – | –
3 | CC(C)NC(C)C.Cl [diisopropylamine hydrochloride] | – | higher | 0.05% | – | Higher | – | increased | – | – | – | – | – | 1.25 times | 2.5 times | – | – | – | – | –
4 | CCNCC.Cl [diethylamine hydrochloride] | Increased yield | higher | – | – | – | – | – | – | – | – | – | much higher | – | – | 1.25 times | 2.5 times | 0.05% | increased; also recorded: Higher | Increased tolerance
